Assays:
Format in all cases: cell-based
MDA-MB-435 = experiment: Cytotoxicity against human MDA-MB-435 cells assessed as effect on cell growth at 10 uM incubated for 48 hrs by sulforhodamine B assay; conditions: mda-mb-435, 48 h
SR = experiment: Cytotoxicity against human SR cells assessed as effect on cell growth at 10 uM incubated for 48 hrs by sulforhodamine B assay
NCI-H522 = experiment: Cytotoxicity against human NCI-H522 cells assessed as effect on cell growth at 10 uM incubated for 48 hrs by sulforhodamine B assay; conditions: nci-h522, 48 h
Hs-578T = experiment: Cytotoxicity against human Hs 578T cells assessed as effect on cell growth at 10 uM incubated for 48 hrs by sulforhodamine B assay
SK-MEL-2 = experiment: Cytotoxicity against human SK-MEL-2 cells assessed as effect on cell growth at 10 uM incubated for 48 hrs by sulforhodamine B assay; conditions: sk-mel-2, 48 h
SNB-75 = experiment: Cytotoxicity against human SNB75 cells assessed as effect on cell growth at 10 uM incubated for 48 hrs by sulforhodamine B assay; conditions: snb-75, 48 h
CCRF-CEM = experiment: Cytotoxicity against human CCRF-CEM cells assessed as effect on cell growth at 10 uM incubated for 48 hrs by sulforhodamine B assay
SF-539 = experiment: Cytotoxicity against human SF539 cells assessed as effect on cell growth at 10 uM incubated for 48 hrs by sulforhodamine B assay; conditions: sf-539, 48 h
HL-60(TB) = experiment: Cytotoxicity against human HL-60(TB) cells assessed as effect on cell growth at 10 uM incubated for 48 hrs by sulforhodamine B assay
A549 = experiment: Cytotoxicity against human A549/ATCC cells assessed as effect on cell growth at 10 uM incubated for 48 hrs by sulforhodamine B assay; conditions: a549, 48 h
SK-MEL-5 = experiment: Cytotoxicity against human SK-MEL-5 cells assessed as effect on cell growth at 10 uM incubated for 48 hrs by sulforhodamine B assay; conditions: sk-mel-5, 48 h
M14 = experiment: Cytotoxicity against human M14 cells assessed as effect on cell growth at 10 uM incubated for 48 hrs by sulforhodamine B assay; conditions: m14, 48 h
NCI-H226 = experiment: Cytotoxicity against human NCI-H226 cells assessed as effect on cell growth at 10 uM incubated for 48 hrs by sulforhodamine B assay; conditions: nci-h226, 48 h
MOLT-4 = experiment: Cytotoxicity against human MOLT4 cells assessed as effect on cell growth at 10 uM incubated for 48 hrs by sulforhodamine B assay; conditions: molt-4, 48 h
UACC-62 = experiment: Cytotoxicity against human UACC62 cells assessed as effect on cell growth at 10 uM incubated for 48 hrs by sulforhodamine B assay; conditions: uacc-62, 48 h
HOP-92 = experiment: Cytotoxicity against human HOP92 cells assessed as effect on cell growth at 10 uM incubated for 48 hrs by sulforhodamine B assay; conditions: hop-92, 48 h
HOP-62 = experiment: Cytotoxicity against human HOP62 cells assessed as effect on cell growth at 10 uM incubated for 48 hrs by sulforhodamine B assay; conditions: hop-62, 48 h
HCC 2998 = experiment: Cytotoxicity against human HCC2998 cells assessed as effect on cell growth at 10 uM incubated for 48 hrs by sulforhodamine B assay; conditions: hcc 2998, 48 h
OVCAR-3 = experiment: Cytotoxicity against human OVCAR3 cells assessed as effect on cell growth at 10 uM incubated for 48 hrs by sulforhodamine B assay; conditions: ovcar-3, 48 h
HCT-116 = experiment: Cytotoxicity against human HCT116 cells assessed as effect on cell growth at 10 uM incubated for 48 hrs by sulforhodamine B assay; conditions: hct-116, 48 h

Measured: Activity

O=C(NCCc1ccccc1)[C@@H]1CCC(=O)N1Cc1ccc(Cl)cc1Cl
Non-Toxic: all assays above

O=C(NCc1ccc(Cl)cc1Cl)[C@@H]1CCC(=O)N1c1cccs1
Non-Toxic: all assays above

O=C(NCc1ccc(Cl)cc1Cl)[C@@H]1CCC(=O)N1Cc1ccccc1
Non-Toxic: all assays above

COC(=O)[C@@H]1C/C(=C\NCc2ccc(Cl)cc2Cl)C(=O)N1C(=O)OC
Non-Toxic: all assays above

CN(C)/C=C1\C[C@@H](C(=O)NCc2ccc(Cl)cc2Cl)N(c2cccs2)C1=O
Non-Toxic: all assays above

C[n+]1ccccc1C(=O)NCc1ccc(Cl)cc1Cl.[I-]
Non-Toxic: all assays above

CN1C(=O)CC[C@H]1C(=O)NCc1cc(C(F)(F)F)ccc1Cl
Non-Toxic: all assays above

O=C1N[C@H](C(=O)NCc2ccc(Cl)cc2Cl)C/C1=C/NCc1ccc(Cl)cc1Cl
Non-Toxic: all assays above

O=C(NCc1ccc(Cl)cc1Cl)[C@@H]1CCC(=O)N1c1nccs1
Non-Toxic: all assays above

O=C1CCCC(C(=O)NCc2ccc(Cl)cc2Cl)N1 (stereo not given)
Non-Toxic: all assays above

Cc1ccc(NC(=O)[C@@H]2CCC(=O)N2c2ccccc2)cc1
Non-Toxic: all assays above

O=C(NCc1ccc(Cl)cc1Cl)[C@@H]1CCC(=O)N1c1ccc(Cl)cc1
Non-Toxic: all assays above
